Results reported in paper PMC11855827, “High-Throughput Screening of Five Compound Libraries for Anthelmintic Activity and Toxicity Leads to the Discovery of Two Flavonoid Compounds” (International Journal of Molecular Sciences, 2025).
Where two headings read alike, the source gives them in different places.

Test system: C. elegans
Assay: microbe, parasite or virus in culture
Details: Caenorhabditis elegans
[1] = 0 h, read-out: Percentage of motility inhibition 0 h, Table S2, C. elegans SS assay, 110 μM, 0 h, averages of 4 data points
[2] = 24 h, read-out: Percentage of motility inhibition 24 h, Table S2, C. elegans SS assay, 110 μM, 24 h, averages of 4 data points

Structure (SMILES)	inhibition at 110 µM [1] [%]	inhibition at 110 µM [2] [%]
COc1cc(O)c2c(=O)c(O)c(-c3ccc(O)c(O)c3)oc2c1 [Rhamnetin]	29	12
CC[C@H]1CN2CC[C@]3(C(=O)Nc4ccccc43)[C@@H]2C[C@@H]1/C(=C\OC)C(=O)OC [Rhynchophylline]	0	8
Cc1cc2nc3c(=O)[nH]c(=O)nc-3n(C[C@H](O)[C@H](O)[C@H](O)CO)c2cc1C [Riboflavin]	3	6
CO[C@H]1/C=C/O[C@@]2(C)Oc3c(C)c(O)c4c(c3C2=O)C2=NC3(CCN(CC(C)C)CC3)NC2=C(NC(=O)/C(C)=C\C=C\[C@H](C)[C@H](O)[C@@H](C)[C@@H](O)[C@@H](C)[C@H](OC(C)=O)[C@@H]1C)C4=O [Rifabuti n]	41	2
CO[C@H]1/C=C/O[C@@]2(C)Oc3c(C)c(O)c4c(O)c(c(/C=N/N5CCN(C)CC5)c(O)c4c3C2=O)NC(=O)/C(C)=C\C=C\[C@H](C)[C@H](O)[C@@H](C)[C@@H](O)[C@@H](C)[C@H](OC(C)=O)[C@@H]1C [Rifampicin]	13	4
CO[C@H]1/C=C/O[C@@]2(C)Oc3c(C)c(O)c4c(O)c(c(/C=N/N5CCN(C6CCCC6)CC5)c(O)c4c3C2=O)NC(=O)/C(C)=C\C=C\[C@H](C)[C@H](O)[C@@H](C)[C@@H](O)[C@@H](C)[C@H](OC(C)=O)[C@@H]1C [Rifapen tine]	9	13
CO[C@H]1/C=C/O[C@@]2(C)Oc3c(C)c(O)c4c(O)c(c5c(nc6cc(C)ccn65)c4c3C2=O)NC(=O)/C(C)=C\C=C\[C@H](C)[C@H](O)[C@@H](C)[C@@H](O)[C@@H](C)[C@H](OC(C)=O)[C@@H]1C [Rifaximin]	7	1
Cc1cc(/C=C/C#N)cc(C)c1Nc1ccnc(Nc2ccc(C#N)cc2)n1 [Rilpivirine]	32	20
CC(C)c1nc(CN(C)C(=O)N[C@H](C(=O)N[C@@H](Cc2ccccc2)C[C@H](O)[C@H](Cc2ccccc2)NC(=O)OCc2cncs2)C(C)C)cs1 [Ritonavir]	2	0
O=c1c(O)c(-c2cc(O)c(O)c(O)c2)oc2cc(O)ccc12 [Robinetin]	39	7
CC1OC(OCC2OC(Oc3c(-c4ccc(O)cc4)oc4cc(OC5OC(C)C(O)C(O)C5O)cc(O)c4c3=O)C(O)C(O)C2O)C(O)C(O)C1O (stereo not drawn) [Robinin]	31	8
COc1c2ccoc2nc2c(O)cccc12 [Robustine]	16	7
CN1CCc2cc3c(c4c2C1Cc1ccccc1-4)OCO3 (stereo not drawn) [Roemerine]	0	0
Cn1c([N+](=O)[O-])cnc1COC(N)=O [Ronidazole]	9	0
C[C@@H]1CC[C@]2(C(=O)O)CC[C@]3(C)C(=CC[C@@H]4[C@@]5(C)CC[C@H](O)[C@@](C)(CO)[C@@H]5CC[C@]43C)[C@@H]2[C@]1(C)O [Rotundic acid]	24	45
CC[C@H]1OC(=O)[C@H](C)[C@@H](O[C@H]2C[C@@](C)(OC)[C@@H](O)[C@H](C)O2)[C@H](C)[C@@H](O[C@@H]2O[C@H](C)C[C@H](N(C)C)[C@H]2O)[C@](C)(O)C[C@@H](C)/C(=N\OCOCCOC)[C@H](C)[C@@H](O)[C@]1(C)O [Roxithromycin]	22	4
CC[C@@]1(O)C(=O)OCc2c1cc1n(c2=O)Cc2cc3c([N+](=O)[O-])cccc3nc2-1 [Rubitecan]	5	0
C=C1C[C@@]23CC[C@H]4[C@@](C)(CCC[C@@]4(C)C(=O)O[C@@H]4O[C@H](CO)[C@@H](O)[C@H](O)[C@H]4O)[C@@H]2CC[C@]1(O[C@@H]1O[C@H](CO)[C@@H](O)[C@H](O)[C@H]1O)C3 [Rubusoside]	0	18
